The record followed here is article PMC10714400, “Antimicrobial Peptide–Peptoid Hybrids with and without Membrane Disruption” (ACS Infectious Diseases, 2023).

The subject of data set [1] is human red blood cells (hRBC). The data set can be described thus: Minimum hemolytic concentration (MHC). In kind it is cell-based.
Excerpt: We also measured minimal hemolysis concentrations (MHC) on human red blood cells by serial 2-fold dilution as an indication of toxicity against eukaryotic cells (Table 1).
Data set [2] concerns A. baumannii ATCC19606. The following applies: ATCC19606, 4 h. Here is the method:
(§1) Antimicrobial activity was assayed for all the peptide–peptoids against P. aeruginosa PAO1, K. pneumoniae NCTC418, E. coli W3110, A. baumannii ATCC 19606, methicillin-resistant S. aureus COL (MRSA), and for selected peptides on P. aeruginosa PA14 and the polymyxin-B-resistant derivatives PA14 4.13, PA14 4.18, PA14 2P4, as well as the clinical isolates ZEM-1A and ZEM9A, K. pneumoniae OXA-48, S. aureus Newman, Enterobacter cloacae, Stenotrophomonas maltophilia, Burkholderia cenocepacia, and Staphylococus epidermidis. To determine the Minimal Inhibitory Concentration (MIC), the Broth Microdilution method was used.[72] A colony of bacteria was picked and grown in LB medium overnight at 37 °C.
(§2) To each well was finally added 4 μL of the diluted bacterial suspension (see above), corresponding to approximately 5 × 10^5 CFU. For each test, two columns of the plate were kept for sterility control (medium only), growth control (medium with bacterial inoculum, no compound). The positive control, Polymyxin B (starting with a concentration of 16 μg/mL) in MH medium with bacterial inocula, was introduced in the two lines of the plate. The plates were incubated at 37 °C for ca. 18 h under static conditions. Next, 15 μL of 3-(4,5-dimethylthiazol-2-yl)-2,5-diphenyltetrazolium bromide (MTT)[73] (1 mg/mL in sterilized MilliQ deionized water) were added to each well, and the plates were incubated for 20–30 min at room temperature. The minimal inhibitory concentration (MIC) was defined as the lowest concentration of the compound that inhibits the visible growth of the tested bacteria (yellow) with the unaided eye.

In data set [3] the test system is E. coli W3110. The method, then:
as §1, §2

Data set [4] relates to S. aureus COL (MRSA). The conditions noted are these: COL, 4 h. The method, then: as §1, §2
For data set [5], the system named is P. aeruginosa PAO1. The following applies: PAO1, 4 h. Here is the method:
as §1, §2

The test system of data set [6] is PA14 2P4 (pmrB). The following applies: CSV; […] MH at pH 8.5. The method, then:
as §1, §2

Data set [7] has as its system K. pneumoniae NCTC418. The following applies: NCTC418, 4 h. Here is the method:
as §1, §2

Data set [8] relates to PA14 4.18 (pmrB). The following applies: CSV; […] MH at pH 8.5. The method, then: as §1, §2
Data set [9] concerns PA14 4.13 (phoQ). The conditions noted are these: […] MH at pH 8.5. Here is the method: as §1, §2

Molecules are shown by their SMILES. In brackets after ≈: the same amount, converted by molar mass. Where a SMILES comes first, the peptide text is derived from it. [ ]: non-standard residue; d: D form. Nleu = CC(C)CNCC(=O)O

With `CC(C)CN(CC(N)=O)C(=O)CN(CC(C)C)C(=O)CN(CC(C)C)C(=O)[C@H](CCCCN)NC(=O)CN(CC(C)C)C(=O)CN(CC(C)C)C(=O)[C@H](CCCCN)NC(=O)CN(CC(C)C)C(=O)CN(CC(C)C)C(=O)[C@H](CCCCN)NC(=O)[C@@H](N)CCCCN` [EB8, KKllKllKlll] (H-KK[Nleu][Nleu]K[Nleu][Nleu]K[Nleu][Nleu][Nleu]-NH2), in data set [1], the Hemolysis entry is listed as “none of them showed any measurable hemolysis” and the MHC is >2000 µg/mL. In data set [2] (pH 7.4), the “MIC A. baumannii ATCC19606, full MH at pH 7.4” value is >32 ug/mL. Besides, the “MIC A. baumannii ATCC19606, full MH at pH 8.5” value in data set [2] (pH 8.5) was found to be 16 ug/mL. In addition, the “MIC E. coli W3110, […] MH at pH 7.4” value in [3] (CSV, […] MH at pH 7.4) was determined as 8 ug/mL. Besides, the “MIC E. coli W3110, […] MH at pH 8.5” value in [3] (CSV, […] MH at pH 8.5) came out at 3 ug/mL. Also, in [3] (CSV, full MH at pH 7.4), the “MIC E. coli W3110, full MH at pH 7.4” value is listed as >32 ug/mL. Further, the “MIC E. coli W3110, full MH at pH 8.5” value in data set [3] (CSV, full MH at pH 8.5) worked out at 8 ug/mL. Also, the “MIC E. coli W3110 […] 8.5” value in data set [3] (Table S2, […] MH, pH 8.5) was 2 to 4 µg/mL. Besides, the “MIC E. coli W3110 […]” value in [3] (diluted MH ([…] MH, pH 8.5) per Table 1 footnote b, 16–20 h at 37 °C) turned out to be 8 µg/mL (≈ 6.05 µM). Besides, the “MIC E. coli W3110 Full” value in data set [3] (full MH, pH 7.4, 16–20 h at 37 °C) is >32 µg/mL. For the same molecule, the “MIC S. aureus COL (MRSA), full MH at pH 7.4” value in [4] (pH 7.4) is >32 ug/mL. Moreover, the “MIC S. aureus COL (MRSA), full MH at pH 8.5” value in data set [4] (pH 8.5) was 16 ug/mL. In addition, the “MIC P. aeruginosa PAO1, full MH at pH 7.4” value in [5] (pH 7.4) is on record as >32 ug/mL. The “MIC P. aeruginosa PAO1, full MH at pH 8.5” value in data set [5] (pH 8.5) amounted to 16 ug/mL. The “MIC P. aeruginosa PA14 2P4, […] MH at pH 8.5” value in [6] stood at 32 ug/mL. In addition, the “MIC K. pneumoniae NCTC418, full MH at pH 7.4” value in data set [7] (pH 7.4) is >32 ug/mL. Moreover, in data set [7] (pH 8.5), the “MIC K. pneumoniae NCTC418, full MH at pH 8.5” value worked out at 16 ug/mL. Further, the “MIC P. aeruginosa PA14 4.18, […] MH at pH 8.5” value in [8] was 32 ug/mL. For the same molecule, the “MIC P. aeruginosa PA14 4.13, […] MH at pH 8.5” value in [9] (CSV) turned out to be 24 ug/mL. Besides, the “MIC P. aeruginosa PA14 4.13” value in [9] (Table S3) is 16 to 32 µg/mL.
